Measurements taken from US11352396B2, “Antimicrobial peptides and methods of using same” (Zoetis Services LLC, priority 2017, dated 2022).

Tests used:
[1] = system: MRSP (Methicillin-Resistant Staphylococcus pseudintermedius); experiment: MIC against selected strains of MRSP; assay type: cell-based; design: key to MIC MRSP 72192 / MIC MRSP 76923 / MR 71994 / Mr 88493 / MR 72035 / MR 72192 / MR 76923 / MR 79882 / MR 80279 / MR 81926 / MR 86002 / MR 87665: MIC in μM (visual, first well with no growth); settings: for MR 71994: MRSP strain 71994, Table 6; for MR 72035: MRSP strain 72035, Table 6; for MR 72192: MRSP strain 72192, Table 6; for MR 76923: MRSP strain 76923, Table 6; for MR 79882: MRSP strain 79882, Table 6; for MR 80279: MRSP strain 80279, Table 6; for MR 81926: MRSP strain 81926, Table 6; for MR 86002: MRSP strain 86002, Table 6; for MR 87665: MRSP strain 87665, Table 6; for Mr 88493: MRSP strain 88493, Table 6
Procedure, shortened: (§1)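 MIC read by eye as the first well showing no growth after 18–20 h incubation. Cultures at 0.5 McFarland were diluted 1:250 in Mueller-Hinton broth and exposed to peptide over 50 μM–0.05 μM in the assay, per CLSI VET01-S2 microbroth method.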

[2] = system: Canine-derived epithelial keratinocyte (CPEK) cells; assay type: cell-based
Procedure, shortened: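 Viability was read by CellTiter-Glo luminescence after overnight exposure (37 °C, 5% CO2) of canine keratinocytes to a peptide range of 50–0.05 μM. Percent effect used phosphate buffer as the zero control and 0.1% Triton X-100 as the full-effect control.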

[3] = system: MSSP (Methicillin-Susceptible Staphylococcus pseudintermedius); experiment: MIC against selected strains of MSSP; assay type: cell-based; design: MIC MSSP 49051 / MIC MSSP 81923 / MIC MSSP 84250 / Effect on MSSP 86000 / Effect on MSSP 72036 / Effect on MSSP 78032: unit not given beside the values; Effect on MSSP 71990 / Effect on MSSP 86001 / Effect on MSSP 72191 / Effect on MSSP 76986 / Effect on MSSP 77378 / Effect on MSSP 81923 / Effect on MSSP 84250 / Effect on MSSP 84658: unit: µM; settings: for SP 49051: S. pseudintermedius 49051, Table 6; for Effect on MSSP 71990: strain 71990, Table 5; for Effect on MSSP 72036: strain 72036, Table 5; for Effect on MSSP 72191: strain 72191, Table 5; for Effect on MSSP 76986: strain 76986, Table 5; for Effect on MSSP 77378: strain 77378, Table 5; for Effect on MSSP 78032: strain 78032, Table 5; for Effect on MSSP 81923: strain 81923, Table 5; for Effect on MSSP 84250: strain 84250, Table 5; for Effect on MSSP 84658: strain 84658, Table 5; for Effect on MSSP 86000: strain 86000, Table 5; for Effect on MSSP 86001: strain 86001, Table 5
Procedure, shortened: as §1

S. aureus ATCC 29213 = assay type: cell-based; design: key to SA 29213: MIC in μM (lowest conc. with no visible growth); settings: S. aureus 29213, Table 6
Description: (§2) Peptides according to SEQ ID NOs as listed in Table 1 were prepared by a commercial manufacturer (CS Bio, Menlo Park, Calif.) using solid phase synthesis. Antimicrobial activity was assessed by determining the Minimal Inhibitory Concentration (MIC) against S. aureus and E. coli. Briefly, Microbroth MICs were performed using CLSI methodology (VET01-S2). For S. aureus and E. coli ATCC strains, TSA with 5% lysed horse blood agar was used for overnight culturing at 37° C. ambient air. A 0.5 mM stock for each peptide was made with cell culture water, 0.01% acetic acid and serially diluted and spotted (10 μL) in a 96-well plate for in assay dose titration concentration of 50 μM to 0.05 μM. 0.5 McFarland Standard of each strain was diluted 1:250 in Mueller-Hinton Broth (MHB). 90 μL of culture suspension was then added upon drug in the 96-well plate for overnight incubation for 18-20 hours. The MIC was determined visually at the first well of no visible growth at the corresponding concentration.

cRBC = assay type: cell-based, canine
Procedure, shortened: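 Percent lysis, measured by absorbance at 405 nm, used 1% Triton X-100 as full effect and phosphate buffer as zero. Peptides spanned 50 µM–0.05 µM and were held with plasma-depleted washed erythrocytes at 37 °C for 1 h.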

E. coli ATCC 25922 = assay type: cell-based; settings: E. coli 25922, Table 6
Description: as §2

| Substance | MR 71994 [1] | MR 72035 [1] | MR 72192 [1] | MR 76923 [1] | MR 79882 [1] | MR 80279 [1] | MR 81926 [1] | MR 86002 [1] | MR 87665 [1] | Mr 88493 [1] | CPEK (50 μM) [2] | SP 49051 [3] | Effect on MSSP 71990 [3] | Effect on MSSP 72036 [3] | Effect on MSSP 72191 [3] | Effect on MSSP 76986 [3] | Effect on MSSP 77378 [3] | Effect on MSSP 78032 [3] | Effect on MSSP 81923 [3] | Effect on MSSP 84250 [3] | further results |
| --- | --- | --- | --- | --- | --- | --- | --- | --- | --- | --- | --- | --- | --- | --- | --- | --- | --- | --- | --- | --- | --- |
| 114 (KWCFRVCYRGICYRRCRR; Artificial Antimicrobial peptide) [compound 114] | 3.1 | 3.1 | 3.1 | 3.1 | 1.6 | 1.6 | 3.1 | 3.1 | 3.1 | 3.1 | 11.9 | 3.1 | 1.6 | 3.1 | 3.1 | 1.6 | 1.6 | 3.1 | 3.1 | 3.1 | Effect on MSSP 84658 [3]: 3.1; Effect on MSSP 86000 [3]: 3.1; Effect on MSSP 86001 [3]: 1.6; SA 29213 (S. aureus ATCC 29213): 6.2; cRBC (50 μM) (cRBC): 97.9; EC 25922 (E. coli ATCC 25922): 1.6 µM |
| 110 (KWCFRVCYRGYCYRRCRD; Artificial Antimicrobial peptide) [compound 110] | 3.1 | 3.1 | 3.1 | 3.1 | 1.6 | 1.6 | 3.1 | 3.1 | 3.1 | 3.1 | 10.7 | 3.1 | 1.6 | 3.1 | 3.1 | 1.6 | 1.6 | 1.6 | 3.1 | 3.1 | Effect on MSSP 84658 [3]: 3.1; Effect on MSSP 86000 [3]: 3.1; Effect on MSSP 86001 [3]: 3.1; SA 29213 (S. aureus ATCC 29213): 6.2; cRBC (50 μM) (cRBC): 46.3; EC 25922 (E. coli ATCC 25922): 1.6 µM |
| 99 (KWCFFVCYRGICYRRCRD; Artificial Antimicrobial peptide) [compound 99] | 1.6 | 3.1 | 3.1 | 1.6 | 1.6 | 1.6 | 3.1 | 3.1 | 1.6 | 1.6 | 19.9 | 3.1 | 1.6 | 1.6 | 3.1 | 1.6 | 1.6 | 1.6 | 1.6 | 3.1 | Effect on MSSP 84658 [3]: 3.1; Effect on MSSP 86000 [3]: 3.1; Effect on MSSP 86001 [3]: 1.6; SA 29213 (S. aureus ATCC 29213): 6.2; cRBC (50 μM) (cRBC): 100.0; EC 25922 (E. coli ATCC 25922): 1.6 µM |
| 115 (GWCFRVCYRGICYRRCND; Artificial Antimicrobial peptide) [compound 115] | 1.6 | 1.6 | 1.6 | 1.6 | 0.8 | 1.6 | 1.6 | 1.6 | 1.6 | 1.6 | 5.1 | 1.6 | 1.6 | 1.6 | 1.6 | 1.6 | 0.8 | 1.6 | 1.6 | 1.6 | Effect on MSSP 84658 [3]: 1.6; Effect on MSSP 86000 [3]: 1.6; Effect on MSSP 86001 [3]: 1.6; SA 29213 (S. aureus ATCC 29213): 3.1; cRBC (50 μM) (cRBC): 94.6; EC 25922 (E. coli ATCC 25922): 0.8 µM |
| 28 (PKWCFRVCYRGICYRRCR; Artificial Antimicrobial peptide) [compound 28] | 1.6 | 3.1 | 3.1 | 1.6 | 0.8 | 1.6 | 1.6 | 1.6 | 1.6 | 1.6 | 19.4 | 1.6 | 1.6 | 1.6 | 1.6 | 0.8 | 1.6 | 1.6 | 1.6 | 1.6 | Effect on MSSP 84658 [3]: 1.6; Effect on MSSP 86000 [3]: 1.6; Effect on MSSP 86001 [3]: 1.6; SA 29213 (S. aureus ATCC 29213): 6.2; cRBC (50 μM) (cRBC): 94.4; EC 25922 (E. coli ATCC 25922): 0.8 µM |
| 30 (PWCFRVCYRGICYRRCR; Artificial Antimicrobial peptide) [compound 30] | 1.6 | 0.8 | 0.8 | 0.8 | 0.8 | 0.8 | 1.6 | 1.6 | 1.6 | 1.6 | 17.0 | 1.6 | 0.8 | 0.8 | 1.6 | 0.8 | 0.8 | 0.8 | 0.8 | 0.8 | Effect on MSSP 84658 [3]: 1.6; Effect on MSSP 86000 [3]: 1.6; Effect on MSSP 86001 [3]: 1.6; SA 29213 (S. aureus ATCC 29213): 3.1; cRBC (50 μM) (cRBC): 63.5; EC 25922 (E. coli ATCC 25922): 1.6 µM |
| 100 (KWCFWVCYRGICYRRCRD; Artificial Antimicrobial peptide) [compound 100] | 1.6 | 3.1 | 1.6 | 1.6 | 1.6 | 1.6 | 1.6 | 1.6 | 1.6 | 3.1 | 29.5 | 1.6 | 1.6 | 1.6 | 3.1 | 1.6 | 3.1 | 1.6 | 1.6 | 1.6 | Effect on MSSP 84658 [3]: 1.6; Effect on MSSP 86000 [3]: 1.6; Effect on MSSP 86001 [3]: 1.6; SA 29213 (S. aureus ATCC 29213): 6.2; cRBC (50 μM) (cRBC): 100.0; EC 25922 (E. coli ATCC 25922): 0.8 µM |
